Literature values, collected in paper PMC5409479 (The Journal of Biological Chemistry, 2017).
One block for each substance: values may come before it.

Experiments:
[1] = system: GCGR, mutation of Trp-36 to Ala; conditions: GCGR Trp-36 to Ala; significantly increased expression
Source text: (§1) This could also move residues Thr-35, Trp-39, Tyr-88, Leu-89, Pro-90, and Trp-91 away from the peptide interface observed in the crystal structure, while bringing Trp-33 and Arg-40 into closer proxim ...

GLP-1R L89A = system: GLP-1R L89A; set-up: method as in PMID 19861722
[2] = system: GLP-1R, mutation of Glu-125 to Ala; set-up: method as in PMID 19815559, PMID 21868452, PMID 20529866
[3] = system: GLP-1R, mutation of Arg-40 to Ala
Source text: as §1

[4] = system: GLP-1R, mutation of Trp-39 to Ala or Phe; conditions: expression comparable with wild type
Source text: as §1

GCG binding (in words) [1]: no detectable binding of GCG
Substance: GCG: glucagon

Substance: GLP-1(7–36)NH2: a high affinity agonist
affinity and agonism (in words) (GLP-1R): a high affinity agonist

Substance: GLP-1(9–36)NH2
affinity and agonism (in words) (GLP-1R): a low affinity partial agonist

GLP-1 peptide binding (in words) (GLP-1R L89A): abolishing GLP-1 peptide binding | GLP-1 binding (in words) [4]: loss of detectable GLP-1 binding
Substance: GLP-1: cognate ligand of GLP-1R
GLP-1 binding affinity or function (in words) [2]: did not significantly impact GLP-1 binding affinity or function | binding affinity of GLP-1 (in words) [3]: small decrease in binding affinity of GLP-1

Substance: exendin(9–39)
affinity and agonism (in words) (GLP-1R): a high affinity antagonist
